Data on 78 sequences can be found in the OligoGym collection.

This data set addresses IRF5. The note with it: ASO.

“And” between values parts separate entries of the source, which are not always exact repeats. Equal entries are not always repeated. After the bases stand the sugars from the 5' end (letter, count) and the backbone: PS all phosphorothioate, else s phosphorothioate and o phosphodiester by linkage. Methylation of C is not given here. e = 2'-O-(2-methoxyethyl) (MOE); k = constrained ethyl (cEt); d = 2'-deoxy (DNA); m = 2'-O-methyl

Where the note is “KARPAS-229, 4 µM”, TGACTGTATTACCTAT (sugars k3 d10 k3, PS) gave a target mRNA inhibition of 18%. Still for that read-out and setting: the figure for GACTGTATTACCTATA (sugars k3 d10 k3, PS) is 41%.

Sequence “CGGTCTTTGAGGTCTG (sugars kkkddddddddkekek, PS)” showed a target mRNA inhibition (KARPAS-229, 4 µM) of 56%. Still for that read-out and setting: for “GGTCTTGACCTCCCGC (sugars kkddddddddddkeke, PS)” the value was 0%; for TAAACCATTCTATGCC (sugars k3 d10 k3, PS), 9%.

On to “TCCAATTTTGCATTCC (sugars kkdddddddddkekek, PS)”, for which, for the setting “KARPAS-229, 4 µM”, the target mRNA inhibition was 29%. The same measure, in the same setting: the figure for “CACCACTGTGTACCCC (sugars kddddddddddkekek, PS)” is 0%. In the case of TCCAATTTTGCATTCC (sugars k3 d10 k3, PS), the target mRNA inhibition is, setting by setting: (KARPAS-229, 0.44444 µM) 38%; (KARPAS-229, 1.33333 µM) 66%; (KARPAS-229, 4 µM) 78% and 79%; (KARPAS-229, 12 µM) 83%. Under “KARPAS-229, 4 µM”, AGGTTCTTGGACTCTC (sugars k3 d10 k3, PS) displayed a target mRNA inhibition of 0%.

For “TCCAATTTTGCATTCC (sugars kkkddddddddkekek, PS)”, for the setting “KARPAS-229, 4 µM”, the target mRNA inhibition is 51%. Same read-out and setting: for “CCAATTTTGCATTCCA (sugars kkdddddddddkdkdk, PS)” the value was 42%. The same measure, in the same setting: for “GTGTATTTCCCTGTCT (sugars kkdddddddddkekek, PS)” the value was 0%; for “GGTCTGGCCCTTTTGG (sugars kkkdddddddddkeke, PS)”, 17%; for “CCATTCTATGCCTTTT (sugars k2 d8 e4 k2, PS)”, 17%.

With TAAGGGCACAGCGCAG (sugars k3 d10 k3, PS), the target mRNA inhibition (KARPAS-229, 4 µM) is 0%.

In the case of “ACCATTCTATGCCTTT (sugars kkkddddddddkdkdk, PS)”, the target mRNA inhibition (KARPAS-229, 4 µM) came to 11%. Same read-out and setting: for “TCACCACTGTGTACCC (sugars k2 d8 e4 k2, PS)” the value was 0%; for “AGGTTCTTGGACTCTC (sugars kkdddddddddkdkdk, PS)”, 36%; for “TGAGTCTCAAACCAGG (sugars kkkddddddddkekek, PS)”, 0%. The same measure, in the same setting: the figure for “TGAGTCTCAAACCAGG (sugars kkdddddddddkekek, PS)” is 0%. “AGATGGTGTTATCTCC (sugars kkddddddddddkeke, PS)” displayed a target mRNA inhibition (KARPAS-229, 4 µM) of 0%. As for “GATGGTGTTATCTCCG (sugars kkkddddddddkekek, PS)”, the target mRNA inhibition (KARPAS-229, 4 µM) was found to be 0%.

For “GATGGTGTTATCTCCG (sugars k2 d9 e3 k2, PS)”, where the note is “KARPAS-229, 4 µM”, the target mRNA inhibition worked out at 0%.

As for “TGAGTCATGGGCTGAG (sugars kddddddddkekekdd, PS)”, the target mRNA inhibition (KARPAS-229, 4 µM) is 0%. Still for that read-out and setting: for TAGGAGTGAGACGAGC (sugars k3 d10 k3, PS) the value was 1%. Same read-out and setting: the figure for “CGGTCTTTGAGGTCTG (sugars k3 d9 k3 e1, PS)” is 32%. On the same count and under the same terms, for GGTCTTGACCTCCCGC (sugars k3 d10 k3, PS) the value was 33%; for “GCATTCCATATACACA (sugars kkkddddddddkekek, PS)”, 0%. For the setting “KARPAS-229, 4 µM”, CATTCTATGCCTTTTA (sugars k3 d10 k3, PS) returned a target mRNA inhibition of 24%. ATACCCAATGCAACAT (sugars k3 d10 k3, PS) displayed a target mRNA inhibition (KARPAS-229, 4 µM) of 1%. The same measure, in the same setting: the figure for “CCCAATGCAACATCCA (sugars kkddddddddddkeke, PS)” is 0%; for “CCCAATGCAACATCCA (sugars k3 d9 k3 e1, PS)” it is 0%. On the same count and under the same terms, the figure for “AGATGGTGTTATCTCC (sugars kkkdddddddddkeke, PS)” is 8%. In the case of “GGTTCTTGGACTCTCA (sugars kkddddddddddkeke, PS)”, the target mRNA inhibition was 39% (KARPAS-229, 0.44444 µM); 59% (KARPAS-229, 1.33333 µM); 51% and 73% (KARPAS-229, 4 µM); 84% (KARPAS-229, 12 µM).

Consider “TATTTCTGCTCCAGGT (sugars k2 d9 e3 k2, PS)”, for which the target mRNA inhibition reads like this: (KARPAS-229, 0.44444 µM) 57%; (KARPAS-229, 1.33333 µM) 71%; (KARPAS-229, 12 µM) 83%. As for “CGGTCTTTGAGGTCTG (sugars kkddddddddddkeke, PS)”, the target mRNA inhibition (KARPAS-229, 0.44444 µM) is 31%; the target mRNA inhibition (KARPAS-229, 1.33333 µM) was 29%; the target mRNA inhibition (KARPAS-229, 4 µM) is 43% and 46%; the target mRNA inhibition (KARPAS-229, 12 µM) is 57%. With “GCTGTCACATCTCCAC (sugars kkkddddddddkekek, PS)”, under “KARPAS-229, 4 µM”, the target mRNA inhibition came to 0%. Same read-out and setting: for “TCCAATTTTGCATTCC (sugars kkddddddddddkeke, PS)” the value was 40%; for GCAAAGGGTGAGTAGG (sugars k3 d10 k3, PS), 24%; for “ACTGACACAGGCGGAT (sugars kkkddddddddkekek, PS)”, 0%. Under “KARPAS-229, 4 µM”, TGCAGGGAGTCAGACC (sugars k3 d10 k3, PS) yielded a target mRNA inhibition of 0%. On the same count and under the same terms, the figure for CGGTCTTTGAGGTCTG (sugars k3 d10 k3, PS) is 32%. As for “ACCATTCTATGCCTTT (sugars k3 d9 k3 e1, PS)”, the target mRNA inhibition by setting is: (KARPAS-229, 0.44444 µM) 33%; (KARPAS-229, 1.33333 µM) 56%; (KARPAS-229, 4 µM) 59% and 61%; (KARPAS-229, 12 µM) 75%. For “GGAGTGAGACGAGCAA (sugars k2 d9 e3 k2, PS)”, the target mRNA inhibition (KARPAS-229, 4 µM) stood at 25%. On the same count and under the same terms, for “GCATTCCATATACACA (sugars kkddddddddddkeke, PS)” the value was 37%. Same read-out and setting: for “TGCACTGACACAGGCG (sugars kkkddddddddkekek, PS)” the value was 0%. On to ATGAGTAATAGGAGTG (sugars k3 d10 k3, PS), for which the target mRNA inhibition (KARPAS-229, 0.44444 µM) turned out to be 15%; the target mRNA inhibition (KARPAS-229, 1.33333 µM) was 46%; the target mRNA inhibition (KARPAS-229, 4 µM) was 56% and 52%; the target mRNA inhibition (KARPAS-229, 12 µM) was 70%.

Take GAATTTTGTGACTGTA (sugars k3 d10 k3, PS): the target mRNA inhibition is, setting by setting: (KARPAS-229, 0.44444 µM) 41%; (KARPAS-229, 1.33333 µM) 66%; (KARPAS-229, 4 µM) 57% and 67%; (KARPAS-229, 12 µM) 78%. For the sequence “TATTTCTGCTCCAGGT (sugars kkddddddddkekekk, PS)”, under “KARPAS-229, 4 µM”, the target mRNA inhibition came to 0%.

Take “ATGAGTCATGGGCTGA (sugars kkkddddddddkekek, PS)”: the target mRNA inhibition (KARPAS-229, 4 µM) was 0%.

The sequence “TTATCTCCGTCCTGGC (sugars k2 d8 e4 k2, PS)” had a target mRNA inhibition (KARPAS-229, 4 µM) of 0%. Same read-out and setting: the figure for TCTAGTGTCATGGAAT (sugars k3 d10 k3, PS) is 14%. Still for that read-out and setting: the figure for “AGATGGTGTTATCTCC (sugars kkkddddddddkdkdk, PS)” is 0%; for “TATTTCTGCTCCAGGT (sugars kkkddddddddkekek, PS)” it is 24%; for “CTTGGTCTTGACCTCC (sugars kddddddddddkekek, PS)” it is 0%. The same measure, in the same setting: for TGCCTTCTGCAGGGAG (sugars k3 d10 k3, PS) the value was 0%; for “AAGGGCACAGACGCAGG (sugars k3 d10 k3 d1, PS)”, 0%. For the sequence CGGTGTATTTCCCTGT (sugars k3 d10 k3, PS), under “KARPAS-229, 4 µM”, the target mRNA inhibition worked out at 0%. On the same count and under the same terms, for “TGTCTAGTGTCATGGA (sugars kkdddddddddkekek, PS)” the value was 44%; for “GGTCTTGACCTCCCGC (sugars kkdddddddddkekek, PS)”, 7%; for “CCATTCTATGCCTTTT (sugars k2 d9 e3 k2, PS)”, 50%. The same measure, in the same setting: for “TGAGTCATGGGCTGAG (sugars kekdddddddddeekk, PS)” the value was 12%; for “GGTCTGGCCCTTTTGG (sugars k3 d9 k3 e1, PS)”, 0%; for GTCTAGTGTCATGGAA (sugars k3 d10 k3, PS), 38%. The same measure, in the same setting: for “GTTCTTGGACTCTCAA (sugars kkdddddddddkdkdk, PS)” the value was 20%; for GTCATGGAATTTTGTG (sugars k3 d10 k3, PS), 54%. Take “GTTATCTCCGTCCTGG (sugars kkddddddddddkeke, PS)”: the target mRNA inhibition (KARPAS-229, 4 µM) amounted to 0%. As for “CTGAUATGATACCTAA (sugars k3 d1 m1 d8 k3, PS)”, the target mRNA inhibition was determined as 6% (A-431, 0.00412 µM); 23% (A-431, 0.01225 µM); 41% (A-431, 0.03704 µM); 64% (A-431, 0.11111 µM); 82% (A-431, 0.33333 µM); 82% (A-431, 1 µM). “GTTATCTCCGTCCTGG (sugars kdddddddddkekeke, PS)” came in with a target mRNA inhibition (KARPAS-229, 4 µM) of 0%. Same read-out and setting: for AGCTTTCTTGTCTAGT (sugars k3 d10 k3, PS) the value was 20%; for GAGGAAGTGAGTCTCA (sugars k3 d10 k3, PS), 0%; for “GGTCTTGACCTCCCGC (sugars kkddddddddkekekk, PS)”, 44%. Under “KARPAS-229, 4 µM”, “GTTATCTCCGTCCTGG (sugars k3 d9 k3 e1, PS)” showed a target mRNA inhibition of 33%. The same measure, in the same setting: the figure for AGTGAGACGAGCAAAG (sugars k3 d10 k3, PS) is 16%; for “AGGAGTGAGACGAGCA (sugars kkddddddddddkeke, PS)” it is 28%; for “GGAGTGAGACGAGCAA (sugars k2 d8 e4 k2, PS)” it is 17%. Still for that read-out and setting: for “TGAGTCTCAAACCAGG (sugars kkdddkddddkekekk, PS)” the value was 0%; for “CAGGTTCTTGGACTCT (sugars k3 d9 k3 e1, PS)”, 0%.
